Reference: PubChem BioAssay AID1963835 (Molecular Pharmacology Branch, DTP, NCI, 2024)
Several values for one entry are separate records, joined by “and”; a condition that tells them apart may be missing. Equal values may be shown once.

System: 699152-130-R-J1-PDC complex spheroid viability
Assay: Anticancer human tumor 699152-130-R-J1-PDC patient-derived pancreatic carcinoma cell line growth inhibition [POLQ]
Details: for viability, T/C: stronger effect = lower value
Experimental: Multicellular complex tumor spheroid response to Polymerase (POL) inhibitors (novobiocin, ART-558, RP6685) in combination with a variety of drugs and investigational agents in selected tumor cell lines
The POL inhibitors (novobiocin, ART-558, and RP6685) were evaluated both individually and in combination with standard of care and investigational anticancer small molecules within a complex spheroid model of solid tumors. . Complex spheroids include a stromal component modeled by human endothelial cells (HUVEC) and fibroblasts modeled by human mesenchymal stem cells (MSCs). The concentration ranges selected for each drug and investigational agent were based upon clinically achievable concentrations if the clinical Cmax of the agent was known.
Compounds. The drugs and investigational agents: novobiocin (NSC847541), ART-558 (NSC835418), RP-6685 (NSC848927), peposertib (NSC802822), ceralasertib (NSC780249), elimusertib (NSC800525), camonsertib (NSC841442), AZD-1390 (NSC803789), olaparib (NSC753686), talazoparib (NSC767125), rucaparib (NSC756644), sotorasib (NSC818433), MRTX-1133 (NSC836407), SN-38 (NSC673596), topotecan (NSC609699), epotoside (NSC141540), doxorubicin (NSC123127), gemcitabine (NSC613327), 5-fluorouracil (NSC19893), paclitaxel (NSC125973), vemurafenib (NSC761431), MSA-2 (NSC828583), SN-011 (NSC837082), adavosertib (NSC754352), prexasertib (NSC758257), carboplatin (NSC241240) and oxaliplatin (NSC266046), were obtained from the National Cancer Institute (NCI) Developmental Therapeutics Program Chemical Repository (21). The FDA-approved anticancer drug set is available from the Developmental Therapeutics Program at https://dtp.cancer.gov/organization/dscb/obtaining/. […] The stock solutions were prepared in dimethyl sulfoxide (DMSO, Sigma-Aldrich, St. Louis, MO, cat. D2650), except for the platinum compounds which were prepared in saline (Quality Biological, Gaithersburg, MD, cat. 114-055-101), at 800-fold the tested concentration and stored at -70 degrees C prior to their use. All drugs and investigational agents were tested over a range starting from a high concentration at or near the clinical Cmax and decreasing in half-log increments. If the clinical Cmax for an agent had not been determined, the highest concentration tested was 10 microM, except for SN-38, which was tested at a high concentration of 1 microM.
Cell Culture. All cells were maintained in an incubator at 37 degrees C and 5% CO2 with 95% humidity. The PDC lines were cultured according to standard operating procedures established by the NCI PDMR (https://pdmr.cancer.gov). Table 3 of the manuscript, lists the cell lines along with the number of the three cell types plated to form the mct-spheroids and media for tumor cell growth. After thawing, all PDC lines, except 997537-175-T-J1-PDC and 415267-285-R-J2-PDC, were cultured in Matrigel-coated flasks prepared with a working solution of 1X Ham's F-12 nutrient mix, without supplementation (Thermo Fisher Scientific, cat. 11765054), 100 U/mL penicillin-streptomycin (Thermo Fisher Scientific, cat. 15140122), and 2.5% Matrigel (Corning Inc., Corning, NY, cat. 354248) for the first three passages. The two PDC lines 997537-175-T-J1-PDC and 415267-285-R-J2-PDC were cultured on uncoated flasks. The 857933-349-R-J2-PDC line was cultured in 6C/Colon 1B media containing advanced DMEM/F-12 (Thermo Fisher Scientific, cat. 12634028), 10 mM HEPES (Thermo Fisher Scientific, cat. 15630080), 1X GlutaMAX supplement (Thermo Fisher Scientific, cat. 35050061), 0.1 mg/mL primocin (InvivoGen, San Diego, CA, cat. ant-pm-2), 10% defined fetal bovine serum, heat inactivated (HyClone Laboratories Inc., Logan, UT, cat. SH30070.03HI), 50% L-WRN conditioned media (ATCC, cat. CRL-3276), 1.25 mM N-Acetyl-L-cysteine (Sigma-Aldrich, cat. A9165), 10 mM nicotinamide (Sigma-Aldrich, cat. N0636), 1X B-27 supplement (Thermo Fisher Scientific, cat. 17504044), 1X N-2 supplement (Thermo Fisher Scientific, cat. […]
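Further: spheroids exposed to agents for 7 days before viability reading.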
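Wherever viability, T/C is given: percent of DMSO vehicle control viability so 100% = vehicle and 0% = no viable signal.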

For `Nc1ccn(C2OC(CO)C(O)C2(F)F)c(=O)n1` (stereo not given) + Nc1ccc(C#CCN(C(=O)Cc2ncc(C(F)(F)F)cc2C(F)(F)F)c2ccc(F)cc2)nn1, the IC50 (curve of first compound, second compound 0.0316 µM) was 0.476 µM, the IC50 (curve of first compound, second compound 0.1 µM) was 0.771 µM and the IC50 (curve of first compound, second compound 0.316 µM) was 1.77 µM. For the same molecule, the IC50 (curve of first compound, second compound 1 µM) was 2.37 µM, the IC50 (curve of first compound, second compound 3.16 µM) was 1.44 µM and the IC50 (curve of first compound, second compound 10 µM) was 2.16 µM. The viability, T/C (second compound 0.0316 µM, first compound 0.0316 µM) was 71.5%, the viability, T/C (second compound 0.0316 µM, first compound 0.1 µM) was 58.8% and the viability, T/C (second compound 0.0316 µM, first compound 0.316 µM) was 50.5%. For the same molecule, the viability, T/C (second compound 0.0316 µM, first compound 1 µM) was 46.9%, the viability, T/C (second compound 0.0316 µM, first compound 3.16 µM) was 50% and the viability, T/C (second compound 0.0316 µM, first compound 10 µM) was 43%. The viability, T/C (second compound 0.1 µM, first compound 0.0316 µM) was 78.4%, the viability, T/C (second compound 0.1 µM, first compound 0.1 µM) was 65.5% and the viability, T/C (second compound 0.1 µM, first compound 0.316 µM) was 52%. For the same molecule, the viability, T/C (second compound 0.1 µM, first compound 1 µM) was 46%, the viability, T/C (second compound 0.1 µM, first compound 3.16 µM) was 55.6% and the viability, T/C (second compound 0.1 µM, first compound 10 µM) was 37.5%. For the same molecule, the viability, T/C (second compound 0.316 µM, first compound 0.0316 µM) was 81.3%, the viability, T/C (second compound 0.316 µM, first compound 0.1 µM) was 60.5% and the viability, T/C (second compound 0.316 µM, first compound 0.316 µM) was 55.9%. For the same molecule, the viability, T/C (second compound 0.316 µM, first compound 1 µM) was 55.4%, the viability, T/C (second compound 0.316 µM, first compound 3.16 µM) was 49.6% and the viability, T/C (second compound 0.316 µM, first compound 10 µM) was 44.6%. The viability, T/C (second compound 1 µM, first compound 0.0316 µM) was 79.2%, the viability, T/C (second compound 1 µM, first compound 0.1 µM) was 63.9% and the viability, T/C (second compound 1 µM, first compound 0.316 µM) was 57.4%. The viability, T/C (second compound 1 µM, first compound 1 µM) was 58.5%, the viability, T/C (second compound 1 µM, first compound 3.16 µM) was 51.5% and the viability, T/C (second compound 1 µM, first compound 10 µM) was 41%. It also gave a viability, T/C (second compound 3.16 µM, first compound 0.0316 µM) of 84.2%, a viability, T/C (second compound 3.16 µM, first compound 0.1 µM) of 68.3% and a viability, T/C (second compound 3.16 µM, first compound 0.316 µM) of 55.2%. For the same molecule, the viability, T/C (second compound 3.16 µM, first compound 1 µM) was 55.3%, the viability, T/C (second compound 3.16 µM, first compound 3.16 µM) was 49% and the viability, T/C (second compound 3.16 µM, first compound 10 µM) was 40%. The viability, T/C (second compound 10 µM, first compound 0.0316 µM) was 103%, the viability, T/C (second compound 10 µM, first compound 0.1 µM) was 82.8% and the viability, T/C (second compound 10 µM, first compound 0.316 µM) was 63.1%. It also gave a viability, T/C (second compound 10 µM, first compound 1 µM) of 52.8%, a viability, T/C (second compound 10 µM, first compound 3.16 µM) of 50.9% and a viability, T/C (second compound 10 µM, first compound 10 µM) of 44.9%.
For `COc1cc(C2c3cc4c(cc3C(OC3OC5COC(C)OC5C(O)C3O)C3COC(=O)C23)OCO4)cc(OC)c1O` (stereo not given), the viability, T/C (compound 0.0316 µM) was 105% and 94.4% and 87.1%, the viability, T/C (compound 0.1 µM) was 90.3% and 87% and 86.1% and the viability, T/C (compound 0.316 µM) was 76.8% and 81.6% and 71.8%. The viability, T/C (compound 1 µM) was 73.7% and 79.2% and 62.8%, the viability, T/C (compound 3.16 µM) was 59.8% and 63.5% and 52.7% and the viability, T/C (compound 10 µM) was 53.1% and 44% and 40.2%. For the same molecule, the IC50 (curve of compound) was > 10 µM and 7.19 µM and 3.71 µM.
`CC1COCCN1c1cc(C2(S(C)(=N)=O)CC2)nc(-c2ccnc3[nH]ccc23)n1` (stereo not given) was tested, and the viability, T/C (compound 0.0316 µM) was 105% and 93.7% and 91.8%, the viability, T/C (compound 0.1 µM) was 102% and 97.1% and 94.4% and the viability, T/C (compound 0.316 µM) was 90.2% and 91.5% and 105%. The viability, T/C (compound 1 µM) was 88.6% and 97.4% and 88.8%, the viability, T/C (compound 3.16 µM) was 76% and 82.6% and 74% and the viability, T/C (compound 10 µM) was 73.1% and 68.3% and 65.9%. For the same molecule, the IC50 (curve of compound) was > 10 µM.
With `CC1COCCN1c1cc(C2(O)CC3CCC(C2)O3)c2cnn(-c3ccn[nH]3)c2n1` (stereo not given) the viability, T/C (compound 0.0316 µM) was 85.2% and 93.5% and 88.1%, the viability, T/C (compound 0.1 µM) was 80.7% and 83.5% and 80% and the viability, T/C (compound 0.316 µM) was 65.9% and 63.9% and 67.3%. The viability, T/C (compound 1 µM) was 56% and 53.3% and 57.5%, the viability, T/C (compound 3.16 µM) was 47.1% and 48.7% and 44.4% and the viability, T/C (compound 10 µM) was 35.8% and 33.2% and 36.5%. The IC50 (curve of compound) was 1.99 µM and 1.72 µM and 1.94 µM.
With `CC(C)n1c(=O)n(C)c2cnc3cc(F)c(-c4ccc(OCCCN5CCCCC5)nc4)cc3c21` the viability, T/C (compound 0.0316 µM) was 93.3% and 103% and 119%, the viability, T/C (compound 0.1 µM) was 88.1% and 91.7% and 92.8% and the viability, T/C (compound 0.316 µM) was 98.6% and 105% and 99.7%. The viability, T/C (compound 1 µM) was 110% and 102% and 97.5%, the viability, T/C (compound 3.16 µM) was 96.3% and 110% and 87.4% and the viability, T/C (compound 10 µM) was 87.1% and 91.8% and 85.5%. For the same molecule, the IC50 (curve of compound) was > 10 µM.
